# In PMC11876601 (Molecular Systems Biology, 2025):
# Several values for one entry are separate records, joined by “and”; a condition that tells them apart may be missing. Identical values can stand only once. Like-named read-outs stand apart in the source and are kept apart here.
# What was measured:
# PDO B535 = experiment: PDO viability assay (CellTiter-Glo, 72 h); type: cell-based, human; settings: for pEC50: single replicates R1-R8
# Description: (§1) Primary patient-derived PDAC organoid (PDO) experiments were performed in the laboratories of Prof. Maximilian Reichert (University Hospital of the TU Munich, Germany, PDO set 1: B250, B535, B678) and Prof. Jens T. Siveke (University Hospital Essen, Germany; PDO set 2: UME008, UME012, UME051, UME053, UME060, UME061). PDOs were generated from surgical resection, EUS-guided fine needle biopsy (EUS-FNB), or ascites (Appendix Table S2). Surgical specimens were first minced with a sterile scalpel and subsequently washed with Anti-Anti solution and washing medium (PDO set 1), or vice versa (PDO set 2; Appendix Table S3). Biopsy samples were directly washed with an Anti-Anti solution and washing medium. Samples were digested using 1 ml of digestion medium at 37 °C while shaking, and the enzymatic reaction was stopped by adding 15 ml of washing medium (Appendix Table S3). If samples of PDO set 1 were blood-stained, tissue pellets were first incubated with ACK lysing buffer/red blood cells lysis buffer (Thermo Fisher Scientific) for 5 min and then digested using TrypLE (Thermo Fisher Scientific). The reversed procedure was applied for blood-stained samples of PDO set 2. For PDO generation from ascites, the material was first spun down at 500 × g for 5 min. Then, washing medium was added and the suspension was centrifuged at 300 × g for 5 min. If the pellet was blood-stained, ACK lysis buffer was added and incubated at room temperature.
# (§2) For viability assays in PDOs, confluent organoids were removed from medium, and Matrigel was dissolved by adding 200 μl (PDO set 1) or 2 ml (PDO set 2) of Cell Recovery Solution (Corning), and additionally 500 μl of DPBS (PDO set 1 only). Samples were transferred into a falcon and incubated on ice for 30 min, followed by centrifugation at 300 × g at 4 °C for 5 min (after adding 10 ml washing medium for PDO set 2). Subsequently, TrypLE Express Enzyme (Thermo Fisher) was added to cell pellets and incubated for 2 × 5 min at 37 °C. The enzymatic reaction was quenched by DPBS (PDO set 1) or washing medium (PDO set 2), and samples were washed by centrifugation at 300 × g at 4 °C for 5 min. Five hundred cells/well were seeded in 384-well plates (Corning) in 50 μl of PDO medium containing 10% Matrigel. To allow PDO generation, cells were incubated for 4 days at 37 °C and 5% CO2. […] Experiments were pipetted manually (PDO set 1) or automatically using a TECAN D300e Digital Dispenser (HP; PDO set 2). Treatments were performed in eight replicates, except for PDO PPES045 (quadruplicates). After 72 h, cell viability was measured using the CellTiter-Glo Luminescent Cell Viability Assay (Promega) diluted 1:5 in the final volume of the well. After 20 min of incubation at room temperature under gentle shaking, the acquisition was performed in the microplate reader VantaSTAR (BMG Labtech) using 3000 gain for the amplification measurement of a detected signal (PDO set 1) or the Spark Multimode microplate reader (TECAN) at 800 ms integration time (PDO set 2).
# PDO UME008 = experiment: PDO viability assay (CellTiter-Glo, 72 h); type: cell-based, human;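 for Curve top: fraction of plate-wise median vehicle signal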
# Description: as §1, §2
# PDO B250 = experiment: PDO viability assay (CellTiter-Glo, 72 h); type: cell-based, human; settings: for pEC50: single replicates R1-R8
# Description: as §1, §2
# PDO B678 = experiment: PDO viability assay (CellTiter-Glo, 72 h); type: cell-based, human
# Description: as §1, §2
# PDO UME060 = experiment: PDO viability assay (CellTiter-Glo, 72 h); type: cell-based, human;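 for Curve top: fraction of plate-wise median vehicle signal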
# Description: as §1, §2
# BUB1 = test system: BUB1; set-up: method as in Reinecke et al. (2023); settings: BUB1, 5 cell line mix lysate, Kinobeads ε, ref Reinecke et al. (2023), cited from earlier work
# PKN3 = test system: PKN3; set-up: method as in Reinecke et al. (2023); settings: PKN3, 5 cell line mix lysate, Kinobeads ε, ref Reinecke et al. (2023), cited from earlier work
# PDGFRB = test system: PDGFRB; set-up: method as in Klaeger et al. (2017); settings: lysate 4 cell line mix (Colo205, K-562, MV-4-11, and SK-N-BE(2)), Kinobeads y, ref Klaeger et al. (2017); cited from earlier work
# MAP3K5 = test system: MAP3K5; set-up: method as in Klaeger et al. (2017); settings: lysate 4 cell line mix (Colo205, K-562, MV-4-11, and SK-N-BE(2)), Kinobeads y, ref Klaeger et al. (2017); cited from earlier work
# [1] = Experiment GEM (GEM alone), single replicates R1-R8, read-out: EC50
# [2] = Experiment GEM+ATRi_dose1 (ATRi = Elimusertib)
# [3] = Experiment GEM+ATRi_dose1 (ATRi = Elimusertib), single replicates R1-R8, read-out: EC50
# [4] = Homo sapiens, Experiment GEM+ATRi_dose1 (ATRi = Elimusertib), mean of replicates, read-out: EC50 mean
# [5] = Homo sapiens, Experiment GEM+ATRi_dose3 (ATRi = Elimusertib), mean of replicates, read-out: EC50 mean
# [6] = PDO UME008, GEM + Elimusertib (ATRi) dose1, per replicate
# [7] = PDO UME008, GEM + Elimusertib (ATRi) dose2, per replicate
# [8] = PDO UME008, GEM + Elimusertib (ATRi) dose3, per replicate
# [9] = PDO UME008, GEM alone, per replicate
# [10] = Homo sapiens, Experiment GEM (GEM alone), mean of replicates, read-out: EC50 mean
# [11] = Homo sapiens, Experiment GEM+ATRi_dose2 (ATRi = Elimusertib), mean of replicates, read-out: EC50 mean
# [12] = Homo sapiens, GEM alone, read-out: EC50 mean
structure (smiles),measurement,setting,value
"Nc1ccn([C@@H]2O[C@H](CO)[C@@H](O)C2(F)F)c(=O)n1 [GEM, Gemcitabine]",pEC50,PDO B535; Experiment GEM (GEM alone),8.39 and 8.78 and 8.35 and 8.91
same,EC50,PDO B535; [1],4.05 nM and 1.64 nM and 2.44 nM and 4.43 nM and 1.23 nM
same,pEC50,PDO B535; [2],8.24 and 8.20 and 8.63 and 8.99 and 8.75 and 8.16
same,EC50,PDO B535; [3],5.81 nM and 6.33 nM and 3.06 nM and 2.33 nM and 1.02 nM and 1.78 nM and 6.97 nM
same,pEC50,PDO B535; Experiment GEM+ATRi_dose3 (ATRi = Elimusertib),9.08 and 8.91 and 9.48 and 9.75 and 9.91 and 9.06
same,EC50,PDO B535; [4],3.9 nM
same,EC50,PDO B535; [5],0.59 nM
same,EC50,"PDO UME008; Homo sapiens, PDO UME008, GEM + Elimusertib (ATRi) dose1, mean of replicates, read-out: EC50 mean",5.72 nM
same,EC50,"PDO UME008; Homo sapiens, PDO UME008, GEM + Elimusertib (ATRi) dose1, per replicate, read-out: EC50",5.99 nM
same,EC50,"PDO UME008; Homo sapiens, PDO UME008, GEM + Elimusertib (ATRi) dose1, per replicate, read-out: pEC50 (converted)",6.03 nM
same,EC50,"PDO UME008; Homo sapiens, PDO UME008, GEM alone, mean of replicates, read-out: EC50 mean",26.4 nM
same,EC50,"PDO UME008; Homo sapiens, PDO UME008, GEM alone, read-out: EC50 mean",26.4 nM
same,EC50,"PDO UME008; Homo sapiens, SET-2, PDO UME008 (PDO set 2), Experiment GEM (GEM alone), mean of replicates, read-out: EC50 mean",26.4 nM
same,EC50,"PDO UME008; Homo sapiens, SET-2, PDO UME008 (PDO set 2), Experiment GEM (GEM alone), single replicates, read-out: EC50",35.3 nM
same,EC50,"PDO UME008; Homo sapiens, SET-2, PDO UME008 (PDO set 2), Experiment GEM (GEM alone), single replicates, read-out: pEC50 (converted)",35.5 nM
same,EC50,"PDO UME008; Homo sapiens, SET-2, PDO UME008 (PDO set 2), Experiment GEM+ATRi_dose1 (ATRi = Elimusertib), mean of replicates, read-out: EC50 mean",5.72 nM
same,EC50,"PDO UME008; Homo sapiens, SET-2, PDO UME008 (PDO set 2), Experiment GEM+ATRi_dose1 (ATRi = Elimusertib), single replicates, read-out: EC50",4.47 nM
same,EC50,"PDO UME008; Homo sapiens, SET-2, PDO UME008 (PDO set 2), Experiment GEM+ATRi_dose1 (ATRi = Elimusertib), single replicates, read-out: pEC50 (converted)",4.47 nM
same,Curve slope,PDO UME008; [6],0.15 and 0.09 and 0.06 and 0.14 and 0.13 and 0.10 and 0.08
same,Curve top,PDO UME008; [6],0.83 and 1.39 and 1.43 and 1.58
same,pEC50,PDO UME008; [6],8.33 and 8.31 and 8.10 and 8.30 and 8.17
same,EC50,"PDO UME008; PDO UME008, GEM + Elimusertib (ATRi) dose1, per replicate, read-out: EC50",4.68 nM and 4.87 nM and 6.08 nM and 7.93 nM and 4.97 nM and 6.77 nM
same,Curve slope,PDO UME008; [7],0.07 and 0.08 and 0.13 and 0.0742 and 0.12
same,Curve top,PDO UME008; [7],1.01 and 1.56 and 1.34 and 1.60 and 1.61 and 1.89
same,pEC50,PDO UME008; [7],8.24 and 8.33 and 8.77
same,EC50,"PDO UME008; PDO UME008, GEM + Elimusertib (ATRi) dose2, per replicate, read-out: EC50",5.77 nM and 3.11 nM and 4.73 nM and 1.69 nM
same,Curve slope,PDO UME008; [8],0.10 and 0.07 and 0.08 and 0.0752 and 0.11 and 0.09
same,Curve top,PDO UME008; [8],1.25 and 0.88 and 1.26
same,pEC50,PDO UME008; [8],8.27 and 8.67 and 8.63 and 8.23 and 8.28
same,EC50,"PDO UME008; PDO UME008, GEM + Elimusertib (ATRi) dose3, per replicate, read-out: EC50",2.48 nM and 5.32 nM and 2.13 nM and 3.3 nM and 2.33 nM and 5.9 nM and 5.31 nM
same,Curve slope,PDO UME008; [9],0.43 and 0.44 and 0.47 and 0.36 and 0.39
same,Curve top,PDO UME008; [9],0.95 and 1.46
same,pEC50,PDO UME008; [9],7.56 and 8.15 and 7.44 and 7.69 and 7.32 and 8.00
same,EC50,"PDO UME008; PDO UME008, GEM alone, per replicate, read-out: EC50",27.4 nM and 7.09 nM and 36.6 nM and 20.4 nM and 48 nM and 10.1 nM
same,pEC50,PDO B250; Experiment GEM (GEM alone),6.73 and 6.37 and 6.71 and 6.62 and 6.75 and 6.40 and 6.58 and 6.41
same,EC50,PDO B250; [1],185 nM and 427 nM and 194 nM and 239 nM and 177 nM and 398 nM and 263 nM and 393 nM
same,pEC50,PDO B250; [2],6.29 and 6.41 and 6.85 and 6.58 and 6.87 and 7.26 and 6.73 and 6.74
same,EC50,PDO B250; [3],516 nM and 389 nM and 140 nM and 262 nM and 135 nM and 54.9 nM and 185 nM and 183 nM
same,EC50,PDO B250; [10],284 nM
same,EC50,PDO B250; [4],233 nM
same,EC50,PDO B250; [11],265 nM
same,EC50,PDO B250; [12],284 nM
same,pEC50,"PDO B678; Experiment GEM+ATRi_dose1 (ATRi = Elimusertib), single replicates R1-R8",6.49 and 6.68 and 7.12 and 6.42 and 6.56 and 6.26
same,EC50,PDO B678; [3],321 nM and 209 nM and 76.6 nM and 382 nM and 273 nM and 548 nM and 379 nM
same,EC50,PDO B678; [10],247 nM
same,EC50,PDO B678; [4],313 nM
same,EC50,PDO B678; [11],156 nM
same,EC50,PDO B678; [5],209 nM
same,EC50,PDO B678; [12],247 nM
same,EC50,"PDO UME060; Homo sapiens, PDO UME060, GEM alone, read-out: EC50 mean",23.4 nM
same,EC50,"PDO UME060; Homo sapiens, PDO UME060, experiment GEM (GEM alone), mean of replicates, read-out: EC50 mean",23.4 nM
same,EC50,"PDO UME060; PDO UME060, PDO set 2, experiment GEM (GEM alone), single replicates, read-out: EC50",31.8 nM and 30.4 nM and 22.2 nM and 14.8 nM and 21.8 nM and 39.5 nM and 17.7 nM and 9.22 nM
same,Curve top,"PDO UME060; PDO UME060, experiment GEM (GEM alone), curve fit",1.00 and 0.88 and 1.04 and 0.95 and 1.07 and 0.83 and 1.30
same,pEC50,"PDO UME060; PDO UME060, experiment GEM (GEM alone), single replicates",7.50 and 7.52 and 7.65 and 7.83 and 7.66 and 7.40 and 7.75 and 8.04
COc1cc(N2CCC(N3CCN(C)CC3)CC2)ccc1Nc1ncc(Cl)c(Nc2ccccc2P(C)(C)=O)n1 [Brigatinib],EC50,BUB1,6990 nM
same,pKDapp,BUB1,5.16
same,Kd,BUB1; read-out: KDapp,6990 nM
same,EC50,PKN3,38500 nM
same,pKDapp,PKN3,4.41
same,Kd,PKN3; read-out: KDapp,38500 nM
C[C@]12O[C@H](C[C@]1(O)CO)n1c3ccccc3c3c4c(c5c6ccccc6n2c5c31)CNC4=O [Lestaurtinib],EC50,PDGFRB,[…]
same,EC50,MAP3K5,788 nM
